Where two headings read alike, the source gives them in different places.
Columns and labels:
L1210 = assay: In vitro cytotoxic activity; assay type: cell-based
[1] = Solvolysis reactivity (UV, 50% CH3OH-aqueous buffer, pH 3); assay type: physicochemical; settings: for k, solvolysis rate constant: pH 3, 25° C., CH3OH/aqueous buffer
Method: The solvolysis was followed spectrophotometrically by UV with the disappearance of the long-wavelength absorption band of the iso-CBI chromophore (397 nm), FIG. 3.
Solvolysis Reactivity: N-BOC-iso-CBI (31, 0.2 mg) was dissolved in CH3OH (1.5 mL) and mixed with pH 3 aqueous buffer (1.5 mL). The buffer contained 4:1:20 (v/v/v) 0.1 M citric acid, 0.2 M Na2HPO4, and H2O, respectively. The solvolysis solution was sealed and kept at 25° C. protected from light. The UV spectrum was measured at regular intervals every 1 h during the first 24 h, every 4 during the next 72 h, and every 12 h for an additional week. The decrease in the long wavelength absorption at 397 nm was monitored, FIG. 3. […] (FIG. 9).
Similarly, N—CO2Me-iso-CBI (33, 0.2 mg) was dissolved in CH3OH (1.5 mL) and mixed with pH 3 aqueous buffer (1.5 mL). The solvolysis solution was sealed and kept at 25° C. protected from light. The UV spectrum was measured at regular intervals every 1 h during the first 24 h, every 4 h during the next 72 h, and every 12 h for an additional week. The decrease in the long wavelength absorption at 395 nm was monitored, FIG. 3.
Similarly, 35 (0.2 mg) was dissolved in CH3OH (1.5 mL) and mixed with pH 3 aqueous buffer (1.5 mL). The solvolysis solution was sealed and kept at 25° C. protected from light. The UV spectrum was measured at regular intervals every 1 h during the first 12 h, every 2 h for the next 24 h, and every 4 h for an additional day. The decrease in the short wavelength absorption at 239 nm was monitored, FIG. 9.

[2] = tested on: w794 DNA (SV40 DNA segment, 144 bp); assay: DNA alkylation selectivity and efficiency, thermally-induced strand cleavage of w794 DNA; assay type: biochemical
Method: FIG. 5 illustrates thermally-induced strand cleavage of w794 DNA (SV40 DNA segment, 144 bp, nucleotide nos. 138-5238); DNA-agent incubation for 24 hours at 25° C., removal of unbound agent and 30 minutes of thermolysis (100° C.), followed by denaturing 8% PAGE and autoradiography, lane 1, control DNA; lanes 2-5, Sanger G, C, A, and T sequencing reactions; lanes 6-7 (−)-iso-CBI-TMI (1×10^−3 and 1×10^−4 M); lanes 8-9, (+)-CBI-TMI (1×10^−5 and 1×10^−4 M); lanes 10-11, (+)-duocarmycin SA (1×10^−5 and 1×10^−6).
FIG. 7 illustrates thermally-induced strand cleavage of w794 DNA (SV40 DNA segment, 144 bp, nucleotide nos. 138-5238); DNA-agent incubation for 24 h at 25° C., removal of unbound agent and 30 min of thermolysis (100° C.), followed by denaturing 8% PAGE and autoradiography; lane 1, control DNA; lanes 2-5, Sanger G, C, A, and T sequencing reactions; lanes 6-8 (+)-duocarmycin SA (1×10^−4 to 1×10^−6 M); lanes9-11, seco-iso-CI-TMI (1×10^−3 to 1×10^−5 M).
DNA Alkylation Selectivity and Efficiency: The DNA alkylation properties of the agents were examined within w794 and w836 duplex DNA for which comparative results are available for related agents. (Boger, D. L., et al., J. Am. Chem. Soc. 1994, 116, 11335; Boger, D. L., et al., J. Am. Chem. Soc. 1994, 116, 6461; and Boger, D. L., et al., J. Am. Chem. Soc. 1995, 117, 11647) The alkylation site identification and the assessment of the relative selectivity among the available sites were obtained by thermally-induced strand cleavage of the singly 5′ end-labeled duplex DNA after exposure to the agents. Following treatment of the end-labeled duplex DNA with a range of agent concentrations and temperatures in the dark, the unbound agent was removed by EtOH precipitation of the DNA Redissolution of the DNA in aqueous buffer, thermolysis (100° C., 30 min) to induce strand cleavage at the sites of DNA alkylation, denaturing high-resolution polyacrylamide gel electrophoresis (PAGE) adjacent to Sanger dideoxynucleotide sequencing standards, and autoradiography led to identification of the DNA cleavage and alkylation sites. The full details of this procedure have been disclosed elsewhere. (Boger, D. L., et al., Tetrahedron 1991, 47, 2661.)
DNA Alkylation Studies: Selectivity and Efficiency: Eppendorf tubes containing singly ^32p 5′-end-labeled double-stranded DNA (9 μL) (Boger, D. L., et al., Tetrahedron 1991, 47, 2661.) in TE buffer (10 mM Tris, 1 mM EDTA, pH 7.5) were treated with the agents in DMSO (1 μL, at the specified concentrations). The solutions were mixed by vortexing and brief centrifugation and subsequently incubated at 4° C., 25° C. or 37° C. for 24-72 h. […]

calf thymus DNA = assay: Calf thymus DNA alkylation, quantitation of adenine N3 adduct; assay type: biochemical; settings: 4° C.
Method: This was addressed through a study of the alkylation of calf thymus DNA. Optimized conditions for the alkylation were established for (−)-44 on an analytical scale (100 μg of agent). For this purpose, the long-wavelength UV absorption of the agent and the adduct provided a useful quantitative measure of the adenine adduct, unreacted starting material and any side products (solvolysis or rearrangement), Table 3. Analytical HPLC analysis was used to confirm the identity of the products through correlation of retention times and UV spectral data with authentic materials. The preparative DNA alkylation reaction and subsequent isolation of (+)-66 was carried out under conditions determined to provide complete consumption of the agent in the presence of a large excess of DNA Thus, extraction (EtOAc) of the aqueous buffer solution containing calf thymus DNA following alkylation (4° C., 72 h, 150 bp) afforded no recovered (−)-44, and only a small amount (<5%) of the rearranged product 65. Conducting the reaction at 4° C. in the presence of a large excess of DNA precluded competitive solvolysis. Thermal treatment of the alkylated DNA in aqueous 10 mM sodium phosphate buffer (100° C., 30 min, pH 7.0) followed by EtOAc extraction provided 66 in 90-95% conversion, ≧95% purity (by HPLC). Repeating this thermal treatment provided little or no additional adduct. No trace of a competing guanine adduct could be detected. This high conversion to a single adduct established that 44 participates exclusively in the adenine N3 alkylation reaction under the conditions examined.

[3] = pH 3; comparison agents 55-61; cited from earlier work
[4] = cytotoxic activity, read-out: IC50
[5] = L1210, seco precursor, read-out: IC50, L1210

2-[((E)-3-(2-Methoxyphenyl)propenyl)carbonyl]-1,2,9,9a-tetrahydrocyclopropa[c]benzo[f]indol-1-one [compound 48]
cytotoxic potency, less potent than 44 and 46 (L1210): 40-50 ×

COC(=O)N1CC2CC23C(=O)c2ccccc2C=C13 (racemic) [compound 33, 2-(Methoxycarbonyl)-1,2,9,9a-tetrahydrocyclopropa[c]benzo[f]indol-8-one]
k, solvolysis rate constant [1]: 6.4e-06 s⁻¹

COc1cc2cc(C(=O)N3CC4CC45C(=O)c4ccccc4C=C35)[nH]c2c(OC)c1OC (racemic) [compound 44, 2-[(5,6,7-Trimethoxyindol-2-yl)carbonyl]-1,2,9,9a-tetrahydrocyclopropa[c]benzo[f]indol-8-one]
DNA alkylation sequence selectivity compared with (+)-duocarmycin SA [2]: same sequence selectivity
adenine adduct 66 (calf thymus DNA; 72 h, 75 base-pair equiv, analytical scale, HPLC/UV): 94%
adenine adduct 66 (calf thymus DNA; 72 h, 150 base-pair equiv, analytical scale, HPLC/UV): 95%
adenine adduct 66 (calf thymus DNA; 72 h, 150 base-pair equiv, preparative scale, isolation and weight): 92%
adenine adduct 66 (calf thymus DNA; 120 h, 150 base-pair equiv, preparative scale, isolation and weight): 95%
cytotoxic potency, 44 compared with 46 (L1210): equipotent

COc1ccc2[nH]c(C(=O)N3CC4CC45C(=O)c4ccccc4C=C35)cc2c1 (racemic) [compound 46, 2-[(5-Methoxyindol-2-yl)carbonyl]-1,2,9,9a-tetrahydrocyclopropa[c]benzo[f]indol-8-one]
cytotoxic potency, 44 compared with 46 (L1210): equipotent

NC(=O)N1CCc2c1ccc1[nH]c(C(=O)N3CC4CC45C(=O)c4ccccc4C=C35)cc21 (racemic) [compound 52, 2-[(3-Carbamoyl-1,2-dihydro-3H-pyrrolo[3,2-e]indol-7-yl)carbonyl]-2,9,9a-tetrahydrocyclopropa[c]benzo[f]indol-8-one]
IC50 (L1210; [4]): 0.2 nM

NC(=O)N1CCc2c1ccc1[nH]c(C(=O)N3CCc4c3ccc3[nH]c(C(=O)N5CC6CC67C(=O)c6ccccc6C=C57)cc43)cc21 (racemic) [compound 54, 2-{[3-[N-(3-Carbamoyl-1,2-dihydro-3H-pyrrolo[3,2-e]indol-7-yl)carbonyl]-1,2-dihydro-3H-pyrrolo[3,2-e]indol-7-yl]carbonyl}-1,2,9,9a-tetrahydrocyclopropa[c]benzo[f]indol-1-one]
IC50 (L1210; [4]): 0.05 nM

COc1ccc2c(c1)C13CC1CN(C(=O)OC(C)(C)C)C3=CC2=O (racemic) [compound 59]
k, solvolysis rate constant [3]: 1.75e-06 s⁻¹

CC(C)(C)OC(=O)N1CC2CC23C1=CC(=O)c1ccc(C#N)cc13 (racemic) [compound 60]
k, solvolysis rate constant [3]: 9.9e-07 s⁻¹

CC(C)(C)OC(=O)N1CC2CC23C=CC(=O)C=C13 (racemic) [compound 61]
k, solvolysis rate constant [3]: 0.0198 s⁻¹

CC(C)(C)OC(=O)N1CC(COS(C)(=O)=O)c2c(O)cccc21 (centres unmarked) [compound 19]
IC50 (L1210; [5]): 10000 nM

COc1cc2cc(C(=O)N3CC(COS(C)(=O)=O)c4c(O)cccc43)[nH]c2c(OC)c1OC (centres unmarked) [compound 20]
DNA alkylation efficiency, less efficient than (+)-duocarmycin SA ([2]; 24 h, 25° C., seco agent): 10 ×
IC50 (L1210; [5]): 6 nM

O=C1C2=NCC3CC23C(=O)c2ccccc21 (centres unmarked) [compound 35, 9,9a-1H-Dihydrocyclopropa[c]benzo[f]indol-3,8-dione]
solvolysis reactivity relative to 31 or 33 (more reactive) ([1]; pH 3): 5-6 ×
k, solvolysis rate constant [1]: 3.8e-05 s⁻¹

Cc1c[nH]c2c1C13CC1CN(C(=O)OC(C)(C)C)C3=CC2=O (centres unmarked) [compound 55]
k, solvolysis rate constant [3]: 5.26e-06 s⁻¹

COC(=O)C1(C)NC2=C(C1=O)C13CC1CN(C(=O)OC(C)(C)C)C3=CC2=O (centres unmarked) [compound 56]
k, solvolysis rate constant [3]: 1.75e-05 s⁻¹

COC(=O)c1cc2c([nH]1)C(=O)C=C1N(C(=O)OC(C)(C)C)CC3CC123 (centres unmarked) [compound 57]
k, solvolysis rate constant [3]: 1.08e-06 s⁻¹

CC(C)(C)OC(=O)N1CC2CC23C1=CC(=O)c1ccccc13 (centres unmarked) [compound 58]
k, solvolysis rate constant [3]: 1.45e-06 s⁻¹

— patent US6486326B2, “iso-CBI and iso-CI analogs of CC-1065 duocarmycins” (The Scripps Research Institute, priority 1997, dated 2002)
